Columns and labels:
[1] = system: heparin-protamine-induced elevated PAP and PVR; assay type: in vivo, sheep
Description: The heparin-protamine reaction was induced in these nine sheep by first administering heparin (200 U/kg; Elkins-Sinn, Cherry Hill, N.J.) followed five minutes later (at time zero) by protamine (2 mg/kg; Elkins-Sinn). Each of these sheep also served as a control. Six additional sheep were given an intravenous infusion of sodium nitroprusside (40 μg/kg/min body weight; Elkins-Sinn) while breathing air (data not shown).

[2] = system: methacholine bronchoconstriction; experiment: Tolerance to 1 hour of NO inhalation during methacholine infusion; assay type: in vivo, Hartley strain guinea pigs
Description: Male Hartley strain guinea pigs (300-440g body wt) were anesthetized with α-chloralose (50 mg/kg) and urethane (500 mg/kg) (Drazen et al., J. Appl. Physiol. 48:613-618, 1980). A tracheostomy was performed, and the animals were intubated with a tubing adaptor (ID 1.65 mm) and ventilated with a small animal ventilator (Harvard Apparatus, a division of Ealing Scientific, Natick, Mass.) at 8 ml/kg and 60 breaths/min. A jugular vein was cannulated for intravenous administration of drugs. The chest was opened by bilateral excision of a portion of the ribs anteriorly so that the lungs were exposed to atmospheric pressure (Shore and Drazen, J. Appl. Physiol. 67:2504-2511, 1989). A positive end expiratory pressure of 3-4 cmH2 O was provided.
Guinea pigs were then placed inside a plethysmograph (Amdur and Mead, Am. J. Physiol. 192:363-368, 1958), that was connected to a large reservoir containing copper mesh to maintain the plethysmograph isothermal. Plethysmograph pressure was measured with a differential pressure transducer (Celesco, Canoga Park, Calif.); the opposite side of this transducer was connected to a similar reservoir. Pressure at the airway opening was measured from a side tap in the tracheal canula. Transpulmonary pressure was measured with a differential pressure transducer (Celesco) as the difference between airway opening pressure and the pressure inside the plethysmograph. […] Tidal volume was measured by recording the pressure changes in the body plethysmograph. Volume, flow, and transpulmonary pressure signals were recorded on a strip chart (General Scanning, Watertown, Mass.). Pulmonary resistance and dynamic compliance were calculated by a computer program according to the method of von Neergard and Wirz (Z. Klin. Med. 105:35-50, 1927; Z. Klin. Med. 105:52-82, 1927).
The apparatus and conditions used are diagrammed in FIG. 7. […] With volumetrically calibrated flowmeters, varying quantities of NO mixed with N2 were substituted for pure N2 to obtain the desired No concentration at an inspired oxygen concentration (FIO2) of 0.30-0.32. […]

[3] = system: primary pulmonary hypertension; conditions: cited from earlier work

Q: Which systemic hypotension ([1]; 180 ppm inhaled NO vs SNP) does the source give for `[N]=O` [NO, nitric oxide] here?
A: The systemic hypotension was “without the latter drug's propensity to cause marked systemic hypotension”.

Q: And the “lowering of heparin-protamine-induced PAP” value ([1]; 180 ppm inhaled NO vs SNP 40 μg/kg/min)?
A: The value was “comparable to 40 μg/kg/min SNP infusion”.

Q: What about the “prevention of elevated PAP and PVR” value ([1]; 180 ppm inhaled NO, nine awake sheep) of the same molecule?
A: The value was “prevent the elevated PAP and PVR”.

Q: And the tolerance ([2]; 100 ppm NO, one hour)?
A: Its tolerance is “no tolerance”.

Q: What about the airway resistance ([2]; 100 ppm NO, one hour (FIG. 13)) of the same molecule?
A: Its airway resistance is “effectively and stably reduced the airway resistance for one hour”.

Q: And the methemoglobin levels ([2]; after one hour of breathing 100 ppm NO)?
A: The methemoglobin levels was “below 5%”.

Q: And the “PAP difference as percentage of ΔPAP” value ([3]; 40 ppm NO)?
A: Its value is “about 6%”.

Q: And the “difference in PAP versus air” value ([3]; 40 ppm NO)?
A: Its value is 2.9 mm Hg.

Q: And the “average PAP” value ([3]; breathing 40 ppm NO, seven patients, 59.6 mm Hg breathing air)?
A: Its value is 56.7 mm Hg.

Q: What about the “average reduction in PVR” value ([3]; during inhalation of NO) of the same molecule?
A: Its value is 9%.

Q: And the “decrease in SAP” value ([3]; during inhalation of NO)?
A: The value was “No corresponding decrease in SAP”.
